pIC50: −log10 of the molar value.
Columns and labels:
[1] = test system: K. pneumoniae ATCC BAA-205 (TEM-1/SHV-1/SHV-12); assay: In vitro synergistic inhibitory concentration (SIC) assay; assay type: cell-based; conditions: Klebsiella pneumoniae, ATCCBAA205, 37° C. 20 hours, read-out: minimum inhibitory concentration, used alone
Description: (§1) 2) 30 μL dimethyl sulfoxide was added to columns 2-12 of the 96-V well plate. 60 μL prepared ceftazidime was added to column 1. 30 μL ceftazidime was transferred from column 1 to column 2 and mixed with a pipette. The same operation was continued until column 11, and 30 μL of the mixture in column 11 was discarded. This was the compound mother plate.
(§2) Mix the liquid in the mother plate with a pipette.
(§3) 4) One day before the experiment, the bacterial glycerol stock which was stored in a −80° C. refrigerator was streaked on a trypticase soy agar plate (TSA), and the plate was incubated in a 37° C. incubator overnight. On the day of the experiment, the monoclonal bacterial was suspended in physiological saline and the turbidity of which was adjusted to 0.5 McFarland standard, corresponding to 1×10^8 CFU/ml. This suspension was diluted 100-fold to 1×10^6 CFU/mL with caton-adjusted Mueller-Hnton broth (CAMHB), which was used as an inoculation fluid.
(§4) 5) a 96-U plate was used as a test plate. Firstly, adding 98 μL CAMHB to each well of the test plate and transferring 2 μL solution in the mother plate to the test plate. 100 μL inoculation fluid was added to each well of the test plate.
(§5) 6) The test plate was incubated at 37° C. for 20 hours.
(§6) The above-mentioned method was also used to determine the antibacterial activity of the test compound or the antibiotic when used alone.

[2] = test system: K. pneumoniae ATCC 51504 (TEM-10); assay: as above; assay type: cell-based; conditions: Klebsiella pneumoniae, ATCC51504, 37° C. 20 hours, read-out: minimum inhibitory concentration, used alone
Description: as §1, §2, §3, §4, §5, §6

[3] = test system: K. pneumoniae ATCC 51503 (TEM-10/12); assay: as above; assay type: cell-based; conditions: Klebsiella pneumoniae, ATCC51503, 37° C. 20 hours, read-out: minimum inhibitory concentration, used alone
Description: as §1, §2, §3, §4, §5, §6

[4] = test system: E. cloacae ATCC BAA-1143 (AmpC); assay: as above; assay type: cell-based; conditions: Enterobacter cloacae, ATCCBAA1143, 37° C. 20 hours, read-out: minimum inhibitory concentration, used alone
Description: as §1, §2, §3, §4, §5, §6

[5] = test system: K. pneumoniae ATCC BAA-1898 (KPC); assay: as above; assay type: cell-based; conditions: Klebsiella pneumoniae, ATCCBAA1898, 37° C. 20 hours, read-out: minimum inhibitory concentration, used alone
Description: as §1, §2, §3, §4, §5, §6

[6] = test system: K. pneumoniae ATCC BAA-1144 (AmpC); assay: as above; assay type: cell-based; conditions: Klebsiella pneumoniae, ATCCBAA1144, 37° C. 20 hours, read-out: minimum inhibitory concentration, used alone
Description: as §1, §2, §3, §4, §5, §6

[7] = test system: K. pneumoniae ATCC-700603 (SHV-18); assay: as above; assay type: cell-based; conditions: Klebsiella pneumoniae, ATCC700603, 37° C. 20 hours, read-out: minimum inhibitory concentration, used alone
Description: as §1, §2, §3, §4, §5, §6

[8] = test system: K. pneumoniae ATCC BAA-1705 (KPC); assay: as above; assay type: cell-based; conditions: Klebsiella pneumoniae, ATCCBAA1705, 37° C. 20 hours, read-out: minimum inhibitory concentration, used alone
Description: as §1, §2, §3, §4, §5, §6

[9] = test system: K. pneumoniae ATCC BAA-1899 (KPC); assay: as above; assay type: cell-based; conditions: Klebsiella pneumoniae, ATCCBAA1899, 37° C. 20 hours, read-out: minimum inhibitory concentration, used alone
Description: as §1, §2, §3, §4, §5, §6

[10] = test system: NDM-1 metalloenzyme-producing strains (8 strains), clinically isolated Klebsiella pneumoniae; assay: SIC assay against Chinese clinical isolates (broth microdilution MIC); assay type: cell-based; conditions: for MIC50 / MIC90: Klebsiella pneumoniae; for MIC50 / MIC90 / MIC range: NDM-1 metalloenzyme-producing K. pneumoniae clinical isolates (8 strains), enzyme inhibitor in combinations fixed at 4 μg/mL; for drug resistance rate / drug sensitive rate: NDM-1 metalloenzyme-producing strains (8 strains), CLSI criteria of the antibiotic, inhibitor fixed at 4 μg/mL
Description: (§7) The broth microdilution method was used to determine the minimum inhibitory concentration (MIC) of antibacterial agents (with and without BLI lead compound) against clinical isolates of carbapenemase-producing strains.
(§8) 1. Drug susceptibility test: according to the method of antimicrobial susceptibility test described in the 2016 edition of the US Clinical and Laboratory Standards Institute (CLSI) document, the MIC of commonly used antibacterial drugs against clinically isolated bacteria was determined by a broth microdilution method.
(§9) 2. Strains: 8 KPC-2 carbapenemase-producing strains, 8 NDM-1 metalloenzyme-producing strains, and 6 OXA-181 carbapenemase-producing strains. All strains were clinically isolated Klebsiella pneumoniae.
(§10) 4. Quality control strains: quality control strains of the drug susceptibility test include Escherichia coli ATCC 25922 and ATCC 35218.

[11] = test system: KPC-2 carbapenemase-producing strains (8 strains), clinically isolated Klebsiella pneumoniae; assay: as above; assay type: cell-based; conditions: for drug resistance rate / drug sensitive rate: KPC-2 carbapenemase-producing strains (8 strains), CLSI criteria of the antibiotic, inhibitor fixed at 4 μg/mL
Description: as §7, §8, §9, §10

[12] = test system: OXA-181 carbapenemase-producing strains (7 strains), clinically isolated Klebsiella pneumoniae; assay: as above; assay type: cell-based; conditions: for MIC50 / MIC90: Klebsiella pneumoniae; for drug resistance rate / drug sensitive rate: OXA-181 carbapenemase-producing strains (7 strains), CLSI criteria of the antibiotic, inhibitor fixed at 4 μg/mL
Description: as §7, §8
2. […] All strains were clinically isolated Klebsiella pneumoniae.
as §10

[13] = test system: K. pneumoniae ATCC BAA-2524 (OXA-48); assay: In vitro synergistic inhibitory concentration (SIC) assay; assay type: cell-based; conditions: Klebsiella pneumoniae, ATCCBAA2524, 37° C. 20 hours, read-out: minimum inhibitory concentration, used alone
Description: as §1, §2, §3, §4, §5, §6

[14] = test system: K. pneumoniae ATCC BAA-2470 (NDM-1); assay: as above; assay type: cell-based; conditions: Klebsiella pneumoniae, ATCCBAA2470, 37° C. 20 hours, read-out: minimum inhibitory concentration, used alone
Description: as §1, §2, §3, §4, §5, §6

[15] = test system: K. pneumoniae ATCC BAA-2472 (NDM-1); assay: as above; assay type: cell-based; conditions: Klebsiella pneumoniae, ATCCBAA2472, 37° C. 20 hours, read-out: minimum inhibitory concentration, used alone
Description: as §1, §2, §3, §4, §5, §6

[16] = test system: E. coli ATCC BAA-2523 (OXA-48); assay: as above; assay type: cell-based; conditions: Escherichia coli, ATCCBAA2523, 37° C. 20 hours, read-out: minimum inhibitory concentration, used alone
Description: as §1, §2, §3, §4, §5, §6

[17] = biological target: AmpC-EC (Class C) β-lactamase (UniProt P05364); assay: In vitro enzymatic assay (Nitrocefin); assay type: biochemical; conditions: Nitrocefin 0.1 mM, 1 × PBS pH 7.4, 0.1 mg/mL BSA, read-out: IC50, inhibitory activity on β-lactamase
Description: (§11) 2) Prepare buffer solution A (1×PBS, pH 7.4, 0.1 mg/mL BSA) for enzymatic assay;
(§12) 3) The compound mother liquor was 4-fold serial diluted for 11 times with DMSO in a 96-well tip-bottom plate, which was used as a working solution. A 96-well flat bottom plate was used as a test plate, the corresponding reaction buffer was previously added to each well, followed by addition of a corresponding volume of the working solution (100 μM-0.095 nM and 0 nM). Wherein, EDTA-Na2 was used as a control for the NDM-1 test at a concentration of 20 mM;
(§13) 4) adding the corresponding β-lactamase, and the test plate was incubated at 37° C. for 5 minutes;
(§14) 5) Adding 5 μL Nitrocefin (the final reaction volume was 100 μL), the absorbance OD490 of the reaction solution in the plate was measured by a microplate reader and the result was recorded, the absorbance was measured every minute over 30 minutes;
(§15) 6) The microplate reader could give a curve of OD490 over time. The slope of the curve (Abs2−Abs1)/(T2−T1) was calculated by taking two data points Abs1 and Abs2 within the linear range of the curve.
(§16) 7) The relative inhibition rate was calculated as follows: Slope (EC) was calculated under the condition of absence of an inhibitor, and Slop(S) was calculated under the condition of an inhibitor at a certain concentration.
(§17) The relative inhibition rate and the corresponding concentration of the inhibitor were used to calculate the IC50 value of the inhibitor on β-lactamase. In this experiment, the IC50 was calculated using the formula of GraphPad Prism 5.0, log(inhibitor) vs. normalized response-Variable slope.

[18] = biological target: OXA-2 (Class D) β-lactamase (Escherichia coli, UniProt P0A1V9); assay: In vitro enzymatic assay (Nitrocefin); assay type: biochemical
Description: as §11, §12, §13, §14, §15, §16, §17

[19] = biological target: OXA-9 (Class D) β-lactamase (Klebsiella pneumoniae, UniProt P0A3M3); assay: In vitro enzymatic assay (Nitrocefin); assay type: biochemical
Description: as §11, §12, §13, §14, §15, §16, §17

[20] = biological target: CTX-M-44 (Class C) β-lactamase (Escherichia coli, UniProt Q47066); assay: In vitro enzymatic assay (Nitrocefin); assay type: biochemical
Description: as §11, §12, §13, §14, §15, §16, §17

[21] = Klebsiella pneumoniae, KPC-2 carbapenemase-producing K. pneumoniae clinical isolates (8 strains), enzyme inhibitor in combinations fixed at 4 μg/mL
[22] = OXA-181 carbapenemase-producing K. pneumoniae clinical isolates (7 strains), enzyme inhibitor in combinations fixed at 4 μg/mL

Row | SMILES | MIC [1] [µg/mL] | MIC [2] [µg/mL] | MIC [3] [µg/mL] | MIC [4] [µg/mL] | MIC [5] [µg/mL] | MIC [6] [µg/mL] | MIC [7] [µg/mL] | MIC [8] [µg/mL] | MIC [9] [µg/mL] | MIC50 [10] [µg/mL] | MIC90 [10] [µg/mL] | MIC range [10] [µg/mL] | drug resistance rate [10] | drug sensitive rate [10] | drug resistance rate [11] | drug sensitive rate [11] | MIC50 [11, 21] [µg/mL] | MIC50 [12, 22] [µg/mL] | MIC90 [12, 22] [µg/mL] | drug resistance rate [12] | also measured
1 | CC(C)(O/N=C(\C(=O)N[C@@H]1C(=O)N2C(C(=O)[O-])=C(C[n+]3ccccc3)CS[C@H]12)c1csc(N)n1)C(=O)O [Ceftazidime, ceftazidime] | 32 | > 128 | > 128 | > 128 | > 128 | > 128 | 64 | > 128 | > 128 | > 128 | > 128 | >128 | 100 | 0 | 100 | 0 | > 128 | > 128 | > 128 | 100 | MIC range ([11]; KPC-2 carbapenemase-producing K. pneumoniae clinical isolates (8 strains), enzyme inhibitor in combinations fixed at 4 μg/mL): 64 to 128 µg/mL; MIC90 [11, 21]: > 128 µg/mL; drug sensitive rate [12]: 0
2 | C[C@@H](O)[C@H]1C(=O)N2C(C(=O)O)=C(S[C@@H]3CN[C@H](C(=O)Nc4cccc(C(=O)O)c4)C3)[C@H](C)[C@H]12 [Ertapenem, ertapenem] |  |  |  |  |  |  |  |  |  |  |  |  |  |  |  |  |  |  |  |  | MIC [13]: 4 µg/mL; MIC [14]: > 128 µg/mL; MIC [15]: > 128 µg/mL; MIC [16]: 8 µg/mL
3 | C[C@@H](O)[C@H]1C(=O)N2C(C(=O)O)=C(S[C@@H]3CN[C@H](C(=O)N(C)C)C3)[C@H](C)[C@H]12 [meropenem] |  |  |  |  |  |  |  |  |  | 4 | 32 | 2 to 32 | 75 | 0 | 100 | 0 | 64 | 0.5 | 2 | 0 | MIC range [12, 22]: 0.5 to 2 µg/mL; drug sensitive rate [12]: 85.7
4 | C[C@H]1[C@H](NC(=O)/C(=N\OC(C)(C)C(=O)O)c2csc(N)n2)C(=O)N1S(=O)(=O)O [aztreonam] |  |  |  |  |  |  |  |  |  | 64 |  |  |  |  |  |  |  |  |  |  | 
5 | NCCONC(=O)[C@@H]1CC[C@@H]2CN1C(=O)N2OS(=O)(=O)O [OP-0595] | > 128 | > 128 | > 128 | 4 | > 128 | > 128 | > 128 | > 128 | > 128 |  |  |  |  |  |  |  |  |  |  |  | MIC [13]: > 128 µg/mL; MIC [14]: > 128 µg/mL; MIC [15]: > 128 µg/mL; MIC [16]: 16 µg/mL
6 | NC(=O)[C@@H]1CC[C@@H]2CN1C(=O)N2OS(=O)(=O)O [Avibactam, avibactam] |  |  |  |  |  |  |  |  |  |  |  |  |  |  |  |  |  |  |  |  | pIC50 [17]: 6.97; pIC50 [18]: 5.83; pIC50 [19]: 5.50; pIC50 [20]: 7.17

Source: patent US10738051B2, “β-lactamase inhibitors” (priority 2016, dated 2020)
